Data taken from US6521751B1, “Recombinant nucleic acid sequences and methods for determining both genotoxicity and mutagenicity of a sample and the kinetics of the genotoxicity” (Vlaamse Instelling voor Technologisch Onderzoek (VITO), priority 1998, dated 2003).
“And” between values parts separate entries of the source, which are not always exact repeats. Equal entries are not always repeated. Where two headings read alike, the source gives them in different places.

Experiments:
[1] = system: TA 98 and TA104 strains containing pMOL1067 or pMOL1068
E. coli (sfiA-lacZ) = details: cited from earlier work
S. typhimurium = details: cited from earlier work
[2] = system: S. typhimurium TA104* containing pMOL890
[3] = system: S. typhimurium TA98 containing pMOL890
[4] = system: S. typhimurium TA98* containing pMOL890
[5] = system: S. typhimurium TA98 containing pMOL1068
[6] = system: S. typhimurium TA100* containing pMOL890
[7] = system: S. typhimurium TA104 containing pMOL1067
[8] = system: S. typhimurium TA104 containing pMOL890
[9] = system: S. typhimurium TA98 containing pMOL1067
[10] = system: S. typhimurium TA104 containing pMOL1069
[11] = system: S. typhimurium TA104 containing pMOL1066
[12] = system: S. typhimurium TA104 containing pMOL1068
[13] = system: TA98 and TA104 strains containing pMOL890, pMOL1067 or pMOL1068; assay: Test with the TA98 and TA104 strains containing pMOL890, pMOL1067 or pMOL1068
TA104 (pMOL890) = details: M9 medium saturated with 0.1% of the PAH, degrading strain, samples every 3 days
[14] = system: novel biosensor systems in E. coli and in S. typhimurium strains; assay: Subject SOS promoter-lux systems (general statements); details: agents known to give false negative results in the SOS chromotest and the Ames test
[15] = TA 98 and TA104 strains containing pMOL1067 or pMOL1068
[16] = SOS chromotest, literature values

## 4-nitroquinoline-N-oxyde [4-NQO]
[1]
  OUTCOME (genotoxicity, final outcome): pos
E. coli (sfiA-lacZ)
  MINIMAL DETECTED CONCENTRATION (MDC): 0.006 nmol/assay
  SOS (result): pos

## c1ccc2cc3ccccc3cc2c1 [Anthracene]
[1]; [15]
  OUTCOME (genotoxicity, final outcome): neg
S. typhimurium
  AMES (result): neg
E. coli (sfiA-lacZ); SOS chromotest, Table 3
  SOS (result): neg

## c1ccc2c(c1)cc1ccc3cccc4ccc2c1c34 [BαP, benzo-α-pyrene]
[2]; BαP 50 mmol + S9
  Number of His^+ revertants: 82 and 85
[2]; BαP 50 mmol − S9
  Number of His^+ revertants: 29 and 27
[2]; BαP 200 mmol + S9
  Number of His^+ revertants: 87
[2]; BαP 200 mmol − S9
  Number of His^+ revertants: 26 and 32
[2]; BαP 600 mmol + S9
  Number of His^+ revertants: 57 and 69
[2]; BαP 600 mmol − S9
  Number of His^+ revertants: 21 and 19
[3]; TA98 pMOL890
  MINIMAL DETECTED CONCENTRATION (MDC): 1.59 nmol/assay
[4]; BαP 10 mmol + S9
  Number of His^+ revertants: 24
[4]; BαP 50 mmol − S9
  Number of His^+ revertants: 0
[4]; BαP 200 mmol + S9
  Number of His^+ revertants: 49 and 50
[4]; BαP 200 mmol − S9
  Number of His^+ revertants: 0
[4]; BαP 600 mmol + S9
  Number of His^+ revertants: 29 and 33
[4]; BαP 600 mmol − S9
  Number of His^+ revertants: 0
[5]; TA98 pMOL1068
  MINIMAL DETECTED CONCENTRATION (MDC): 0.16 nmol/assay
[6]; BαP 10 mmol + S9
  Number of His^+ revertants: 67 and 80
[6]; BαP 50 mmol + S9
  Number of His^+ revertants: 64 and 54
[6]; BαP 50 mmol − S9
  Number of His^+ revertants: 15 and 11
[6]; BαP 200 mmol + S9
  Number of His^+ revertants: 59 and 58
[6]; BαP 600 mmol + S9
  Number of His^+ revertants: 74 and 73
[6]; BαP 600 mmol − S9
  Number of His^+ revertants: 6 and 3
[7]; TA104 pMOL1067
  MINIMAL DETECTED CONCENTRATION (MDC): 0.079 nmol/assay
[1]; [15]
  OUTCOME (genotoxicity, final outcome): pos
[8]; TA104 pMOL890
  MINIMAL DETECTED CONCENTRATION (MDC): 0.32 nmol/assay
[9]; TA98 pMOL1067
  MINIMAL DETECTED CONCENTRATION (MDC): 0.16 nmol/assay
[10]; TA104 pMOL1069
  MINIMAL DETECTED CONCENTRATION (MDC): 0.16 nmol/assay
[11]; TA104 pMOL1066
  MINIMAL DETECTED CONCENTRATION (MDC): 0.16 nmol/assay
E. coli (sfiA-lacZ); SOS chromotest, Table 3
  SOS (result): pos
E. coli (sfiA-lacZ); [16]
  MINIMAL DETECTED CONCENTRATION (MDC): 0.7 nmol/assay
[12]; TA104 pMOL1068
  MINIMAL DETECTED CONCENTRATION (MDC): 0.16 nmol/assay

## COC(=O)N/N=C/c1c[n+]([O-])c2ccccc2[n+]1[O-] [Carbadox]
[1]; [15]
  OUTCOME (genotoxicity, final outcome): pos
S. typhimurium; Ames test, Table 3
  AMES (result): pos
E. coli (sfiA-lacZ); SOS chromotest, Table 3
  SOS (result): pos

## CNC(=O)Oc1cccc2ccccc12 [Carbaryl]
E. coli (sfiA-lacZ)
  SOS (result): pos

## [Cl][Cd][Cl] [CdCl2]
[3]
  MINIMAL DETECTED CONCENTRATION (MDC): neg
[5]
  MINIMAL DETECTED CONCENTRATION (MDC): neg
[7]
  MINIMAL DETECTED CONCENTRATION (MDC): neg
[1]
  OUTCOME (genotoxicity, final outcome): neg
[8]
  MINIMAL DETECTED CONCENTRATION (MDC): neg
S. typhimurium
  AMES (result): neg
  MINIMAL DETECTED CONCENTRATION (MDC): neg
[9]
  MINIMAL DETECTED CONCENTRATION (MDC): neg
[10]
  MINIMAL DETECTED CONCENTRATION (MDC): neg
[11]
  MINIMAL DETECTED CONCENTRATION (MDC): neg
E. coli (sfiA-lacZ)
  MINIMAL DETECTED CONCENTRATION (MDC): neg
  SOS (result): neg
[12]
  MINIMAL DETECTED CONCENTRATION (MDC): neg

## O=P1(N(CCCl)CCCl)NCCCO1 (stereo not drawn) [Cyclophosphamide]
[1]
  OUTCOME (genotoxicity, final outcome): neg
S. typhimurium
  AMES (result): pos
[13]
  result in the test (genotoxicity): negative
E. coli (sfiA-lacZ)
  SOS (result): neg

## ClCC1CO1 (stereo not drawn) [Epichlorohydrine]
[1]
  OUTCOME (genotoxicity, final outcome): pos
S. typhimurium
  AMES (result): pos
E. coli (sfiA-lacZ)
  SOS (result): pos

## S=C1NCCN1 [Ethylenethiourea]
S. typhimurium
  AMES (result): pos

## CCOS(C)(=O)=O [Ethylmethanesulphonate]
[1]
  OUTCOME (genotoxicity, final outcome): pos
S. typhimurium
  AMES (result): pos
E. coli (sfiA-lacZ)
  SOS (result): pos

## c1ccc2c(c1)-c1cccc3cccc-2c13 [Fluoranthene]
[1]
  OUTCOME (genotoxicity, final outcome): pos
TA104 (pMOL890)
  genotoxicity during bacterial degradation of the PAH: an increase of genotoxicity
S. typhimurium
  AMES (result): pos
E. coli (sfiA-lacZ)
  SOS (result): pos

## OO [H2O2, hydrogen peroxide]
[3]; TA98 pMOL890
  MINIMAL DETECTED CONCENTRATION (MDC): 8.5 nmol/assay
[5]; TA98 pMOL1068
  MINIMAL DETECTED CONCENTRATION (MDC): 1.5 nmol/assay
[7]; TA104 pMOL1067
  MINIMAL DETECTED CONCENTRATION (MDC): 11.8 nmol/assay
[1]; [15]
  OUTCOME (genotoxicity, final outcome): pos
[8]; TA104 pMOL890
  MINIMAL DETECTED CONCENTRATION (MDC): 3.8 nmol/assay
S. typhimurium
  AMES (result): neg
  MINIMAL DETECTED CONCENTRATION (MDC): neg
  result in the Ames test: False-negative
[9]; TA98 pMOL1067
  MINIMAL DETECTED CONCENTRATION (MDC): 1.5 nmol/assay
[10]; TA104 pMOL1069
  MINIMAL DETECTED CONCENTRATION (MDC): 5.9 nmol/assay
[14]
  result in the novel systems according to the invention: positive
[13]
  result in the test (genotoxicity): positive
[11]; TA104 pMOL1066
  MINIMAL DETECTED CONCENTRATION (MDC): 11.8 nmol/assay
E. coli (sfiA-lacZ); SOS chromotest, Table 3
  SOS (result): pos
E. coli (sfiA-lacZ); [16]
  MINIMAL DETECTED CONCENTRATION (MDC): 23 nmol/assay
[12]; TA104 pMOL1068
  MINIMAL DETECTED CONCENTRATION (MDC): 11.8 nmol/assay

## NN [Hydrazine]
[1]; [15]
  OUTCOME (genotoxicity, final outcome): pos
S. typhimurium
  AMES (result): pos
E. coli (sfiA-lacZ); SOS chromotest, Table 3
  SOS (result): pos

## COc1ccc2nc3cc(Cl)ccc3c(NCCCNCCCl)c2c1 [ICR191]
[3]; Salmonella typhimurium
  MINIMAL DETECTED CONCENTRATION (MDC): 0.14 nmol/assay
[5]; Salmonella typhimurium
  MINIMAL DETECTED CONCENTRATION (MDC): 0.14 nmol/assay
[7]; Salmonella typhimurium
  MINIMAL DETECTED CONCENTRATION (MDC): 0.55 nmol/assay
[1]
  OUTCOME (genotoxicity, final outcome): pos
[8]; Salmonella typhimurium
  MINIMAL DETECTED CONCENTRATION (MDC): 0.14 nmol/assay
S. typhimurium
  AMES (result): pos
  MINIMAL DETECTED CONCENTRATION (MDC): pos
[9]; Salmonella typhimurium
  MINIMAL DETECTED CONCENTRATION (MDC): 0.28 nmol/assay
[10]; Salmonella typhimurium
  MINIMAL DETECTED CONCENTRATION (MDC): 1.1 nmol/assay
[11]; Salmonella typhimurium
  MINIMAL DETECTED CONCENTRATION (MDC): 1.1 nmol/assay
E. coli (sfiA-lacZ)
  MINIMAL DETECTED CONCENTRATION (MDC): 0.13 nmol/assay
  SOS (result): pos
[12]; Salmonella typhimurium
  MINIMAL DETECTED CONCENTRATION (MDC): 0.55 nmol/assay
